From ChEMBL document CHEMBL1156829 (Proc Natl Acad Sci U S A, 2008)

Legend:
[1] = NOVARTIS: Cytotoxicity against human hepatocellular carcinoma cell line (Huh7); type: toxicity, cell-based, Huh-7; details: Huh7 cells (hepatocellular carcinoma cell line)
Plasmodium falciparum [2] = test: NOVARTIS: Inhibition of Plasmodium falciparum 3D7 (drug-susceptible) proliferation in erythrocyte-based infection assay; type: functional, organism-based; details: Plasmodium falciparum, 3D7
Plasmodium falciparum [3] = test: NOVARTIS: Inhibition of Plasmodium falciparum W2 (drug-resistant) proliferation in erythrocyte-based infection assay; type: functional, organism-based; details: Plasmodium falciparum, W2; read-out: EC50

SMILES	CC50 [1]	EC50 (Plasmodium falciparum [2])	EC50 (Plasmodium falciparum [3])
CCCC(=O)N1CCN(c2nc(Cc3ccccc3)c3c(c2C#N)CC(C)(C)OC3)CC1	> 90.9 µM	0.324 µM	0.363 µM
O=C(NNc1nc2ccccc2nc1Cl)Nc1ccc(Cl)cc1	7.76 µM	0.218 µM	0.306 µM
CCCCCCCCOC(=O)NCCCCCCNC(=O)OCCCCCCCC	> 100 µM	> 12.5 µM	4.19 µM
Nc1cc(C(=O)Nc2cccc(C3=NCCN3)c2)ccc1C(=O)Nc1cccc(C2=NCCN2)c1	> 100 µM	0.199 µM	0.11 µM
Oc1ccc(-c2cncc(NCc3cccc(O)c3)c2)cc1	> 10 µM	0.626 µM	1.25 µM
Cc1ccccc1-c1cccc(CN2CCCCC2CCn2cc(C(=O)NC3CC3)nn2)c1 (configuration not stated)	> 100 µM	1.47 µM	0.685 µM
Cc1cc(-c2cnc(N3CCCC3)nc2C2CCN(Cc3cccnc3)CC2)on1	> 10 µM	0.19 µM	> 1.09 µM
Cc1cc(C)nc(NNc2c([N+](=O)[O-])cccc2[N+](=O)[O-])n1	22 µM	1.8 µM	0.167 µM
CCCc1ccc(OCc2nc(-c3ccc(NC(=O)c4cccs4)cc3)no2)cc1	> 100 µM	0.825 µM	> 12.5 µM
CC[C@@]1(O)C[C@H](O[C@@H]2CC(N(C)C)[C@@H](O[C@@H]3C[C@@H](O)[C@@H](O[C@@H]4CCC(=O)[C@@H](C)O4)C(C)O3)[C@@H](C)O2)c2c(cc3c(c2O)C(=O)c2c(O)ccc(O)c2C3=O)[C@H]1C(=O)OC (some centres not stated)	3.37 µM	0.0877 µM	0.0792 µM
Fc1ccc(Nc2nc(OC(C(F)(F)F)C(F)(F)F)nc(OC(C(F)(F)F)C(F)(F)F)n2)cc1	> 10 µM	> 1.34 µM	1.57 µM
CCN(CC)S(=O)(=O)c1ccc2[nH]cc(C(=O)NCCCN3CCN(c4ccc(OC)cc4)CC3)c(=O)c2c1	51.6 µM	2.34 µM	0.42 µM
CCCN(CC(=O)Nc1cc(C(C)(C)C)nn1-c1cccc(C)c1C)C(=O)C(C)(C)C	> 10 µM	> 1.25 µM	> 0.763 µM
COC(=O)c1sc(-c2ccccc2)cc1NC(=O)c1ccc(S(=O)(=O)N2CCCCCC2)cc1	> 14.1 µM	> 1.25 µM	> 0.506 µM
COc1ccc(C2CC(=O)C3=C(C2)NC(=O)CC3c2ccc([N+](=O)[O-])cc2)cc1OC (configuration not stated)	> 100 µM	0.346 µM	0.0649 µM
CN(CCCNc1ccnc2cc(Cl)ccc12)C(=O)COc1ccccc1	> 10 µM	0.0983 µM	0.286 µM
Cc1cc(Nc2cccc(C(F)(F)F)c2)nc(NCc2ccccc2)n1	15.6 µM	0.178 µM	0.553 µM

SMILES	CC50 [1]	EC50 (Plasmodium falciparum [2])	EC50 (Plasmodium falciparum [3])
COc1ccc(-c2nc(SCCCCC(=O)N3CCN(C(c4ccccc4)c4ccccc4)CC3)[nH]c2-c2ccc(OC)cc2)cc1	> 10 µM	> 1.19 µM	< 0.0134 µM
COc1ccc2[nH]c3c(NCCN4CCCCC4)ncnc3c2c1	28.6 µM	0.785 µM	0.976 µM
CN(CCCNc1ccnc2cc(Cl)ccc12)C(=O)C(Cl)Cl	> 14.1 µM	0.0286 µM	0.0914 µM
Nc1noc2cccc(OC3CCNCC3)c12	> 10 µM	1.03 µM	< 0.0245 µM
CCOC(=O)C1=C(C)NC2=C(C(=O)CC(c3ccc(OC)c(OC)c3)C2)C1c1ccc([N+](=O)[O-])cc1 (configuration not stated)	> 100 µM	0.18 µM	0.064 µM
CC1=C(C(=O)OC(C)C)C(c2ccc([N+](=O)[O-])cc2)C2=C(CC(C)(C)CC2=O)N1 (configuration not stated)	40 µM	1.56 µM	0.255 µM
CCCOC(=O)C1=C(C)NC2=C(C(=O)CC(c3ccc(Cl)cc3)C2)C1c1ccccc1F (configuration not stated)	> 100 µM	0.254 µM	0.0186 µM
Cc1cccc(NC(=O)/C(C#N)=C/c2ccc(C)o2)c1	> 10 µM	> 1.25 µM	> 0.934 µM
Oc1ccc(C2Nc3ccc4ccccc4c3C3C=CCC32)cc1 (configuration not stated)	> 100 µM	0.812 µM	0.292 µM
N=C(N)c1ccc(OCCCOc2ccc(C(=N)N)cc2)cc1	> 6.25 µM	0.0755 µM	0.0595 µM
CCOc1ccc2nc(C)cc(Nc3ccc(C)c(Cl)c3)c2c1	13.6 µM	0.24 µM	0.348 µM
COc1cc(C=NNc2nc3cc(Cl)ccc3[nH]2)cc(OC)c1OC	> 10 µM	0.904 µM	1.08 µM
CC(C)c1ccc(C=NNC(=O)c2ccccc2O)cc1	> 10 µM	> 1.25 µM	1.68 µM
O=C1c2ccccc2C(=O)c2c1ccc1nonc21	> 10 µM	0.121 µM	0.0886 µM
COc1ccc(-c2csc3ncn(N)c(=O)c23)cc1	> 10 µM	> 1.25 µM	> 1.01 µM
CCOC(=O)C1=C(C)N=c2sc(=Cc3cc(Br)ccc3O)c(=O)n2C1c1ccc(OC)c(OC)c1 (configuration not stated)	> 100 µM	2.1 µM	0.814 µM
COC(=O)c1c(N)n(-c2ccccc2OC)c2nc3ccccc3nc12	> 100 µM	> 12.5 µM	2.7 µM
